Results taken from US20230131929A1, “QUINOLINE COMPOUNDS FOR TREATING RESPIRATORY DISORDERS AND VIRAL INFECTIONS” (Aldeyra Therapeutics, Inc., priority 2020, published 2023).

How the values were obtained:
[1] = dextran sulfate sodium (DSS)-induced mouse model of UC; assay type: in vivo
Text: (§1) These cytokines and chemokines affect Th1, Th2, and Th17 pathways, all of which are important in immune homeostasis and disease (Kaiko et al., Immunology 123:326-338, 2007. DOI 10.1111/j.1365-2567.2007.02719.x.; Weaver et al., Annu. Rev. Pathol 8:477-512, 2013. DOI 10.1146/annurev-pathol-011110-130318).

[2] = tested on: inflammatory cytokines and chemokines; test: LPS-induced mouse model of acute sepsis, plasma cytokine profile; assay type: in vivo; details: for IL-10 plasma level, significance of effect: anti-inflammatory cytokine, release facilitated
Experimental: FIG. 4 and FIG. 5 show the effect of compound I-1 on levels of various inflammatory cytokines in a preclinical sepsis model. In the study, lipopolysaccharide (LPS) was administered IP to mice. 30 minutes later, I-1 was administered IP or PO. Mice were sacrificed after 2 hours, and their plasma submitted for cytokine profile analysis. IP=intraperitoneally; PO=orally; mpk=mg per kg. […]
FIG. 4 and FIG. 5 show the effect of compound I-1 on levels of various inflammatory cytokines in a preclinical sepsis model. In the study, lipopolysaccharide (LPS) was administered IP to mice. 30 minutes later, I-1 was administered IP or PO. Mice were sacrificed after 2 hours, and their plasma submitted for cytokine profile analysis. IP=intraperitoneally; PO=orally. As shown in the table below, I-1 decreased several pro-inflammatory cytokines. * P≤0.05; ** P≤0.01; *** P≤0.001; **** P≤0.0001.

[3] = rodent models of NASH; assay type: in vivo; details: three different rodent models of NASH
Text: as §1

[4] = tested on: leukocyte migration; test: LPS-induced acute lung injury model (preclinical ARDS model); assay type: in vivo; details: administered IP
Text: In the bottom panel, the effect of test compounds on leukocyte migration is shown in the model. […] Free RASP are toxic, leading to inflammation and molecular dysfunction by covalently binding to cellular biomolecules, and have been linked to systemic immune-mediated and inflammatory diseases, such as NASH, inflammatory bowel disease (IBD), and other diseases. […]

[5] = clinical trials; cited from earlier work
[6] = 100 mpk IP 30 min after LPS IP, mice, plasma after 2 hours
[7] = 400 mpk PO 30 min after LPS IP, mice, plasma after 2 hours
[8] = LPS-induced mouse model of acute sepsis
[9] = LPS-induced acute lung injury model

SMILES: CC(C)(O)c1nc2ccccc2cc1N [I-1]
- disease parameters (body weight loss, disease activity score, colon length, colon edema, colon inflammation) [1]: improved several disease parameters
- GM-CSF plasma level, significance of effect [2, 6]: * (* P≤0.05)
- IFNγ plasma level, significance of effect [2, 6]: *** (*** P≤0.001)
- IL-1β plasma level, significance of effect [2, 6]: ** (** P≤0.01)
- IL-5 plasma level, significance of effect [2, 6]: **** (**** P≤0.0001)
- IL-7 plasma level, significance of effect [2, 6]: ** (** P≤0.01)
- IL-12 (p40) plasma level, significance of effect [2, 6]: *** (*** P≤0.001)
- IL-17 plasma level, significance of effect [2, 6]: ** (** P≤0.01)
- M-CSF plasma level, significance of effect [2, 6]: * (* P≤0.05)
- MIP-1α plasma level, significance of effect [2, 6]: ** (** P≤0.01)
- MIP-1β plasma level, significance of effect [2, 6]: ** (** P≤0.01)
- MIP-2 plasma level, significance of effect [2, 6]: ** (** P≤0.01)
- TNFα plasma level, significance of effect [2, 6]: * (* P≤0.05)
- VEGF plasma level, significance of effect [2, 6]: * (* P≤0.05)
- IL-10 plasma level, significance of effect [2, 6]: ** (** P≤0.01)
- IFNγ plasma level, significance of effect [2, 7]: *** (*** P≤0.001)
- IL-1β plasma level, significance of effect [2, 7]: ** (** P≤0.01)
- IL-5 plasma level, significance of effect [2, 7]: **** (**** P≤0.0001)
- IL-7 plasma level, significance of effect [2, 7]: * (* P≤0.05)
- IL-12 (p40) plasma level, significance of effect [2, 7]: **** (**** P≤0.0001)
- IL-15 plasma level, significance of effect [2, 7]: ** (** P≤0.01)
- IL-17 plasma level, significance of effect [2, 7]: * (* P≤0.05)
- M-CSF plasma level, significance of effect [2, 7]: *** (*** P≤0.001)
- MCP-1 plasma level, significance of effect [2, 7]: ** (** P≤0.01)
- MIP-1α plasma level, significance of effect [2, 7]: * (* P≤0.05)
- MIP-1β plasma level, significance of effect [2, 7]: * (* P≤0.05)
- IL-10 plasma level, significance of effect [2, 7]: ** (** P≤0.01)
- release of inflammatory cytokines and chemokines [2, 8]: inhibit the release
- release of the anti-inflammatory cytokine interleukin (IL)-10 [2, 8]: facilitate the release
- circulating markers of liver function and inflammation (liver inflammation, steatosis, hepatocyte ballooning, fibrosis) [3]: may have beneficial effects

SMILES: CC(C)(O)c1nc2ccc(Cl)cc2cc1N [I-2, reproxalap]
- infiltrating cells [4, 9]: decreased infiltrating cells
- lung function [4, 9]: improved lung function
- activity in LPS-induced acute lung injury model ([4]; compared with saline and dexamethasone): promising activity
- effect in treating ocular inflammation [5]: beneficial effects
